Legend:
[1] = oral administration, rat; cited from earlier work
[2] = oral dosage of 21 mg/kg, as reported by documents; cited from earlier work
[3] = Phase solubility of naringenin with hydroxypropyl β-cyclodextrin in environments of different pH values; format: physicochemical; conditions: basic pH (8 and 9) versus ultrapure water, same hydroxypropyl β-cyclodextrin concentration (0-16% w/v), 25±1° C., 48 hours
Source text: The process of the experimentation on the coating and solubilization of naringenin by hydroxypropyl β-cyclodextrin comprises:
preparing buffer-salt solutions of pH values of 4, 8 and 9 according to the method on a pharmacopoeia, adding different masses of the hydroxypropyl β-cyclodextrin into the buffer-salt solutions of the pH values of 4, 8 and 9 and ultrapure water, to prepare solutions of hydroxypropyl β-cyclodextrin of mass fractions (w/v) of 0, 2, 4, 8 and 16%, adding individually excessive naringenin, shaking in a constant-temperature shaking table at 25±1° C. at 200 rpm for 48 hours, taking out, standing, filtering by using a 0.45 μm microporous filter membranes, removing the primary filtrate, properly diluting the subsequent filtrate, and performing ultraviolet assay.
The detection method comprises, by using ultraviolet-visible spectrophotometry, measuring at the wavelength of 288 nm.
The preparing of a stock solution of the reference substance comprises: precisely weighing an appropriate amount of the naringenin reference substance that has been dried at 105° C. to constant weight, placing in a 10 mL volumetric flask, and dissolving by using methanol to volume, to obtain a stock solution of the reference substance of the concentration of 1 mg/mL. […]

- total naringenin concentration in hydroxypropyl β-cyclodextrin solution at basic pH relative to ultrapure water [3]: approximately 3 times
Compound: O=C1C[C@@H](c2ccc(O)cc2)Oc2cc(O)cc(O)c21 [naringenin]
- bioavailability, as calculated by the free naringenin [1]: approximately 4%
- AUC0-t [2]: 15080.4 ng·min/g
- Tmax [2]: 120 min
